Assay results from PMC3877906, “Polypeptide Modulators of TRPV1 Produce Analgesia without Hyperthermia” (Marine Drugs, 2013).

How the values were obtained:
[1] = test system: CD-1 mice; assay: core body temperature (rectal measuring); assay type: in vivo, mouse; settings: for core body temperature, in words: rectal measuring, mice, vs saline
Experimental: Admittedly, hyperthermia is considered a critical side effect of TRPV1 antagonists, so we assessed the effect of the polypeptides on body temperature. Polypeptides were administered intravenously at doses 0.1 mg/kg and 0.5 mg/kg, and rectal temperature was monitored (Figure 5a,b).
(§1) All experiments were performed in accordance with the recommendations in the “Principles of Laboratory Animal Care” and after approval by the Animal Care and Use Committee of the Branch of the IBCh RAS (Pushchino, Russia). Adult male CD-1 mice (Animal Breeding Facility Branch of Shemyakin-Ovchinnikov Institute of Bioorganic Chemistry, Russian Academy of Sciences, Pushchino, Russia) weighing 20–25 g were used. Animals were allowed to acclimate in the laboratory for at least five days. Mice were housed at room temperature (23 ± 2 °C) on a 12 h light–dark cycle with food and water available ad libitum. Polypeptides or vehicle was administered intravenously 15 min before testing.
(§2) The significance of the data was determined by analysis of variance (ANOVA) followed by Tukey’s test. Data are presented as mean ± S.E.
The MLT1404 Rectal Temperature Probe and Chart Power Lab (ADInstruments Inc., Colorado Springs, CO, USA) was used to record body temperature. During recording, the animals were placed in a MLA5018 Rodent Restrainer (ADInstruments Inc., Colorado Springs, CO, USA). The adaptation period was 20 min. Core body temperature was recorded every minute for 20 min before and 100 min after test compound administration. AMG9810 was dissolved in DMSO and was injected intraperitoneally.

[2] = test system: TRPV1; assay type: cell-based, rat
Experimental: Figure 2 Effects of APHC3 on recombinant TRPV1 expressed in HEK-293 cells. (a) Resting current recorded from a TRPV1-positive cell held at −30 mV. […] Straight lines above the recording indicate application of APHC3 (Long line) and capsaicin (Short lines). The cells were stimulated and rinsed by rapid switching of the bath solution between the control solution and solutions containing the indicated compound. (b) Capsaicin responses in control and in the presence of the 300 nM APHC3 peptide. In each case, the control response was calculated as an average of two acid responses recorded just prior to peptide application. Averaged responses recorded in the presence of APHC3 were normalized to averaged control responses. Those are presented as the mean ± s.d. (n = 4). […] (c, d) Cell responses to the acidification of the bath solution from pH 7.4 to pH 5.5 in control and in the presence of the APHC3 applied at different concentrations as indicated. The experimental traces in (c) and in (d, upper trace) illustrate representative responses of EGFP/TRPV1-positive cells. The bottom trace in (d) represents responses of an EGFP/TRPV1-negative cell assayed simultaneously. (e) Acid responses recorded in the presence of APHC3 (90, 160 and 240 nM) normalized to a control response. The data are presented as the mean ± s.d. (n = 5–10). […] In each case, the control response was calculated as an average of the two acid responses recorded just prior to peptide application. The average of the two acid responses recorded after peptide application was calculated and normalized to the control response. Experimental traces in (c, d) were obtained from three different cells. The changes in bath solution pH (continuous lines) and APHC3 applications (thick straight lines) are shown above the fluorescence traces. Cells were stimulated and rinsed by a rapid replacement of the control bath solution with modified bath solution at pH 5.5 with or without APHC3.
(§3) HEK-293 cells were cultured in Dulbecco’s modified Eagle’s medium (DMEM) (Life Technologies, Grand Island, NY, USA) containing 10% (vol/vol) fetal bovine serum (Thermo Fisher Scientific, Palm Beach, FL, USA), glutamine (1%) and the antibiotic gentamicin (100 μg/mL) (Life Technologies, Grand Island, NY, USA). The pIRES2-EGFP plasmid harboring rat TRPV1 cDNA was transiently transfected into HEK-293 cells by replacing the growth medium in each well with a transfection mixture, containing 1.6 μg of DNA and 4 μL of Lipofectamine (Life Technologies, Grand Island, NY, USA) in 1 mL of serum-free DMEM. After incubating for 6 h, the transfection mixture was replaced with normal culture medium. Cells were assayed within 48–96 h after transfection.
Ion currents were recorded using an Axopatch 200A amplifier, with a DigiData 1322A interface, and pClamp8 software (Molecular Devices, Downingtown, PA, USA). External solutions were delivered by a gravity-driven perfusion system at a rate of 0.1 mL/s. Generally, the whole-cell patch clamp approach was used with recording pipettes containing (mM): 140 CsCl, 1 MgATP, 10 BAPTA, 10 HEPES-CsOH (pH 7.2). The basic bath solution included the following (mM): 140 NaCl, 5 KCl, 1 MgCl2, 1 CaCl2, 10 HEPES-NaOH (pH 7.4).

[3] = test system: TRPV1; assay: Ca^2+ imaging, capsaicin responses of TRPV1-positive HEK-293 cells; assay type: cell-based, rat; settings: 100 nM
Experimental: as §3
All recordings were performed at room temperature.

[4] = stated as background; cited from earlier work
From the text: TRPV1 participates in thermoregulation, and almost all its known agonists and antagonists change core body temperature. […] The influence of antagonists on core body temperature is more complex. Antagonists that interact with the intracellular capsaicin-binding pocket of TRPV1 elicit a hyperthermic effect if they are able to inhibit pH-induced TRPV1 currents.

[5] = test system: CD-1 mice; assay: hot plate test; assay type: in vivo, mouse; settings: 0.1 and 1 mg/kg; 55 °C
Experimental: The hot plate test is a most simple for TRPV1 inhibitor characterization since TRPV1 play significant role in temperature sensation. Effect of APHC1 and APHC3 on thermal nociception at dose 0.1 mg/kg after intramuscular, intraperitoneal and intravenous administration was measured before. […] Here we assessed changes in thermal nociception to a noxious thermal stimuli elicited by different doses of APHC1 and APHC3 to determine minimal effective dose. […] Both polypeptides reached maximal effect at 0.1 mg/kg.
as §1, §2
Sensitivity to a thermal stimulus was determined by hind paw withdrawal or licking latency using a Hot-Plate Analgesia Meter (Columbus Instruments, Columbus, OH, USA) at 55 °C.

[6] = target: Transient receptor potential vanilloid 1 receptor (TRPV1) (rat) (UniProt O35433)
[7] = test system: TRPV1; settings: ref [22],[23]; cited from earlier work
From the text: (§4) Several polypeptide modulators of TRPV1 that interact with the extracellular part of the receptor have been reported. […] The structural homology of APHCs to these proteins is minimal so both polypeptides presented structural distinct class of TRPV1 inhibitors.

[8] = test system: mice; settings: ref [22],[23]; cited from earlier work
From the text: as §4

Chain of UniProt O35433 (O35433 whole entry): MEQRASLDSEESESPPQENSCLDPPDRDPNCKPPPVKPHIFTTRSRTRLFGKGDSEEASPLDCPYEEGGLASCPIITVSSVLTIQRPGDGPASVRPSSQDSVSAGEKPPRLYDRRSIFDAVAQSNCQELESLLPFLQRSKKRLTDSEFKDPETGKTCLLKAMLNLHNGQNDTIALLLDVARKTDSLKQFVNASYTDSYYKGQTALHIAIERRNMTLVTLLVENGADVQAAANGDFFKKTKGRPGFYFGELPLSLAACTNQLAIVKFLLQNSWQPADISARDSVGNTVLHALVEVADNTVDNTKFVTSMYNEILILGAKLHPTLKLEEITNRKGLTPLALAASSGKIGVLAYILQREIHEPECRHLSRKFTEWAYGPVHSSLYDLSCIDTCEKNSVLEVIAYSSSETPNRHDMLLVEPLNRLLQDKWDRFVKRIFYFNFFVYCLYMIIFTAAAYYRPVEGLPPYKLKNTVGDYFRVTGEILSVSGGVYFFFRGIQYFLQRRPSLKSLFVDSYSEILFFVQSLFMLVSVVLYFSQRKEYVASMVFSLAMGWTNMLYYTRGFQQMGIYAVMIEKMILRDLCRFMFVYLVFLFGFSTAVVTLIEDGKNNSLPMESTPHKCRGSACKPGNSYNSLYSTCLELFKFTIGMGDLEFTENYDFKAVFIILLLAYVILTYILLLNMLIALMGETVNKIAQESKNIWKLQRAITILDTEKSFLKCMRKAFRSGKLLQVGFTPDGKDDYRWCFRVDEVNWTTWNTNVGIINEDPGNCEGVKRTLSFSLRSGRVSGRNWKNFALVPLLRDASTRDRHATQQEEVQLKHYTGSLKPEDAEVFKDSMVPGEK

## CC(C)(C)c1ccc(/C=C/C(=O)Nc2ccc3c(c2)OCCO3)cc1 [AMG9810, reference compound]
[1]; 30 mg/kg i.p., vehicle 10% DMSO, significant, n = 7
  increase in body temperature: 1.6 °C
[1]
  core body temperature, in words: produced hyperthermic effect

## COc1cc(CNC(=O)CCCC/C=C/C(C)C)ccc1O [capsaicin]
[2]
  capsaicin-elicited currents: elicited strong inward currents in all examined TRPV1-positive cells
[3]
  capsaicin-elicited Ca^2+ responses: elicited marked Ca^2+ responses
[4]
  body temperature: significant decrease in body temperature

## aprotinin [reference compound]
[1]; 0.1 mg/kg, not statistically significant vs saline, n = 7
  increase in core body temperature: 0.4–0.5 °C
[1]
  core body temperature, in words: did not change or modestly increase core body temperature
[5]
  behavioral response to thermal stimuli: did not change behavioral response to thermal stimuli

B1: APHC3 (peptide)
chain: GSICLEPKVVGPCTAYFPRFYFNSETGKCTPFIYGGCEGNGNNFETLRACRGICRA
[6]
  inhibition of capsaicin (100 nM)-induced inward currents by 300 nM APHC3, whole-cell patch clamp on TRPV1-positive HEK-293 cells (n = 4): 25%

B2: DkTx: spider's polypeptide that activates TRPV1 (protein, UniProt P0CH43 1-79, looked up)
Tau-theraphotoxin-Hs1a: DCAKEGEVCSWGKKCCDLDNFYCPMEFIPHCKKYKPYVPVTTNCAKEGEVCGWGSKCCHGLDCPLAFIPYCEKYRGRND
[7]
  effect on TRPV1 in vitro: activate TRPV1 in vitro
[8]
  pain response when injected in mice: mediate the pain response
